Measurements from patent publication US20090239939A1, “Combinations for introducing nucleic acids into cells” (priority 1999, published 2009).

Experiments:
[1] = test system: human erythrocytes; experiment: Erythrocyte lysis assay; format: cell-based; conditions: 37° C., 1 h, citrate pH 5 versus HBS, FIG. 5
Method: The assay serves the examination of the ability of peptides to lyse natural membranes in a pH-dependent manner.
The erythrocytes used in this assay were obtained as follows: 10 ml of fresh blood were taken from volunteers and diluted immediately into 10 ml of Alsever's solution (Whaley 1985; Plank et al., 1996). Aliquots of 3 ml each were washed 3 times with the corresponding buffer (40 ml each of citrate or HBS; after addition of buffer, shaking, centrifugation at 2500×g and discarding of the supernatant). The concentration of the erythrocytes was determined with an “extinction coefficient” of 2.394×10^−8 ml/cells at 541 nm. For deriving the extinction coefficient, the cell count in an aliquot was determined using a Neubauer chamber followed by measuring the absorbance of this solution at 541 nm upon addition of 1 μl 1% Triton X-100.
Aliquots of INF7 and copolymer-coupled INF7 (P3INF7), respectively, were provided in column 1 of a 96-well plate in 150 μl 10 mM sodium citrate pH 5/150 mM NaCl and in HBS buffer, respectively (usually corresponding to […] peptide). […] Then, the plates were centrifuged at 2500×g, 150 μl each of the supernatant was transferred into a flat bottom 96-well plate and released hemoglobin was determined at 410 nm using an ELISA plate reader. […] 0% lysis was determined from untreated samples in column 12.

[2] = test system: complement system; experiment: Complement activation assay (CH50)

GLFEAIEGFIENGWEGMIDGWYGC [INF7]
erythrocyte lysis activity [1]: strong pH-dependent activity
complement activation when incorporated in a polylysine-DNA complex ([2]; FIG. 4B): this complement activation disappears
complement activation (CH50 as percentage of CH50max) ([2]; substance itself incubated with human serum, FIG. 4): weak activator of complement
